The experiment concerns the target T1, recombinant human Muscarinic M1 receptor (Homo sapiens, UniProt P11229).
T1 construct: expressed in transfected cells
T1 sequence (P11229 1-460): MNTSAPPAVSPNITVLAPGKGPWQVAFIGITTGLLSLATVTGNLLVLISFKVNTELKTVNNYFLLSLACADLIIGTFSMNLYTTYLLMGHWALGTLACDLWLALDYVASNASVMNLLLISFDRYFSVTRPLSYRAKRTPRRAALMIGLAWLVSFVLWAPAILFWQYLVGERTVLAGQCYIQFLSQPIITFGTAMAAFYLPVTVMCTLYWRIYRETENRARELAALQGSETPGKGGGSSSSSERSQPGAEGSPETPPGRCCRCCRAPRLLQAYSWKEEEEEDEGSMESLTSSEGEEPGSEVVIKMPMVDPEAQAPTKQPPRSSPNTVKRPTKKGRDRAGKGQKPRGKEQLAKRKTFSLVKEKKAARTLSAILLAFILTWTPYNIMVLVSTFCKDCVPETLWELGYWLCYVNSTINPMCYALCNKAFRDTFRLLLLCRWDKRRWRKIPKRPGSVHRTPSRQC
The experiment in a line: Allosteric potency EC50 for Muscarinic M1 receptor, CHO pCRE-Luc reporter assay with EC20 of acetylcholine. The format is cell-based. Particulars: CHO cells, in presence of EC20 of acetylcholine, 4 hours. The method, then:
Determination of Allosteric Potency EC50 Values for Muscarinic M1 Receptor:
A stable CHO cell line expressing recombinant human Muscarinic M1 receptor and pCRE-Luc reporter system was used for cell-based assay. The assay offers a non-radioactive based approach to determine binding of a compound to GPCRs. In this specific assay, the level of intracellular cyclic AMP which is modulated by activation or inhibition of the receptor is measured. The recombinant cells harbor luciferase reporter gene under the control of cAMP response element.
The above cells were grown in 96 well clear bottom white plates in Hams F12 medium containing 10% fetal bovine serum (FBS). Prior to the addition of compounds or standard agonist, cells were serum starved overnight. Increasing concentrations of test compounds were added along with EC20 of acetylcholine in OptiMEM medium to the cells. The incubation was continued at 37° C. in CO2 incubator for 4 hours. Medium was removed and cells were washed with phosphate buffered saline. The cells were lysed and luciferase activity was measured in a Luminometer. Luminescence counts in each concentrations of test item were normalized to the acetylcholine induced maximum response and the data was analyzed using Graphpad software. EC50 values of the compounds were defined as the concentration required in stimulating the luciferase activity by 50% in presence of EC20 of acetylcholine.

In the case of `O=C(N[C@H]1CCCC[C@@H]1O)c1cc(Cc2ccc(Br)cc2)c2cccnn12` [Example 1, N-(cis-1S,2S-2-Hydroxycyclohexyl)-5-(4-bromobenzyl)-pyrrolo[1,2-b]pyridazine-7-carboxamide], the EC50 was 1470 nM. With `O=C(N[C@H]1CCCC[C@@H]1O)c1cc(Cc2cc(Br)ccc2F)c2cccnn12` [Example 2, N-(cis-1S,2S-2-Hydroxycyclohexyl)-5-(5-bromo-2-fluorobenzyl)-pyrrolo[1,2-b]pyridazine-7-carboxamide], the EC50 was 419 nM.

With `O=C(N[C@H]1CCCC[C@@H]1O)c1cc(Cc2ccc(Br)nc2)c2cccnn12` [Example 5, N-(cis-1S,2S-2-Hydroxycyclohexyl)-5-(2-bromo-pyridin-5-ylmethyl)-pyrrolo[1,2-b]pyridazine-7-carboxamide], the EC50 worked out at 2130 nM. With `COc1cccc(Cc2cc(C(=O)N[C@H]3CCCC[C@@H]3O)n3ncccc23)c1` [Example 6, N-(cis-1S,2S-2-Hydroxycyclohexyl)-5-(3-methoxybenzyl)-pyrrolo[1,2-b]pyridazine-7-carboxamide] the figure was 3030 nM; with `O=C(N[C@H]1CCCC[C@@H]1O)c1cc(Cc2ccc(F)cc2F)c2cccnn12` [Example 7, N-(cis-1S,2S-2-Hydroxycyclohexyl)-5-(2,4-difluorobenzyl)-pyrrolo[1,2-b]pyridazine-7-carboxamide], 779 nM. Turning to `O=C(N[C@H]1CCCC[C@@H]1O)c1cc(Cc2ccc(F)cc2)c2cccnn12` [Example 8, N-(cis-1S,2S-2-Hydroxycyclohexyl)-5-(4-fluorobenzyl)-pyrrolo[1,2-b]pyridazine-7-carboxamide], the EC50 stood at 863 nM. In the case of `O=C(N[C@H]1CCCC[C@@H]1O)c1cc(Cc2cccc(F)c2F)c2cccnn12` [Example 9, N-(cis-1S,2S-2-Hydroxycyclohexyl)-5-(2,3-difluorobenzyl)-pyrrolo[1,2-b]pyridazine-7-carboxamide], the EC50 worked out at 2110 nM. Take `COc1ccc(Cc2cc(C(=O)N[C@H]3CCCC[C@@H]3O)n3ncccc23)cc1F` [Example 10, N-(cis-1S,2S-2-Hydroxycyclohexyl)-5-(3-fluoro-4-methoxybenzyl)-pyrrolo[1,2-b]pyridazine-7-carboxamide]: the EC50 is 1220 nM. With `O=C(N[C@H]1CCCC[C@@H]1O)c1cc(Cc2ccnc(Cl)c2)c2cccnn12` [Example 11, N-(cis-1S,2S-2-Hydroxycyclohexyl)-5-(2-chloro-pyridin-4-ylmethyl)-pyrrolo[1,2-b]pyridazine-7-carboxamide], the EC50 was determined as 1300 nM. Turning to `COc1cc(Cc2cc(C(=O)N[C@H]3CCCC[C@@H]3O)n3ncccc23)ccc1F` [Example 12, N-(cis-1S,2S-2-Hydroxycyclohexyl)-5-(4-fluoro-3-methoxybenzyl)-pyrrolo[1,2-b]pyridazine-7-carboxamide], the EC50 was 1340 nM.

As for `O=C(N[C@H]1CCCC[C@@H]1O)c1cc(Cc2ccccc2F)c2cccnn12` [Example 13, N-(cis-1S,2S-2-Hydroxycyclohexyl)-5-(2-fluorobenzyl)-pyrrolo[1,2-b]pyridazine-7-carboxamide], the EC50 was found to be 1760 nM. For `COc1ccc(Cc2cc(C(=O)N[C@H]3CCCC[C@@H]3O)n3ncccc23)c(F)c1` [Example 14, N-(cis-1S,2S-2-Hydroxycyclohexyl)-5-(2-fluoro-4-methoxybenzyl)-pyrrolo[1,2-b]pyridazine-7-carboxamide], the EC50 is 1080 nM. Regarding `O=C(N[C@H]1CCCC[C@@H]1O)c1cc(Cc2ccc(F)c(F)c2)c2cccnn12` [Example 15, N-(cis-1S,2S-2-Hydroxycyclohexyl)-5-(3,4-difluorobenzyl)-pyrrolo[1,2-b]pyridazine-7-carboxamide], the EC50 was determined as 1510 nM.

Regarding `O=C(N[C@H]1CCCC[C@@H]1O)c1cc(Cc2ccc(Cl)nc2)c2cccnn12` [Example 16, N-(cis-1S,2S-2-Hydroxycyclohexyl)-5-(2-chloro-pyridin-5-ylmethyl)-pyrrolo[1,2-b]pyridazine-7-carboxamide], the EC50 was found to be 2760 nM. `O=C(NC1CCOCC1)c1cc(Cc2ccc(Cl)nc2)c2cccnn12` [Example 17, N-(Tetrahydropyran-4-yl)-5-(2-chloropyridin-5-ylmethyl)-pyrrolo[1,2-b]pyridazine-7-carboxamide]: the EC50 came out at 10000 nM. As for `COc1cccc(Cc2cc(C(=O)N[C@H]3CCCC[C@@H]3O)n3ncccc23)c1F` [Example 18, N-(cis-1S,2S-2-Hydroxycyclohexyl)-5-(2-fluoro-3-methoxybenzyl)-pyrrolo[1,2-b]pyridazine-7-carboxamide], the EC50 is 3720 nM. Take `O=C(N[C@H]1CCCC[C@@H]1O)c1cc(Cc2cccc(F)c2)c2cccnn12` [Example 19, N-(cis-1S,2S-2-Hydroxycyclohexyl)-5-(3-fluorobenzyl)-pyrrolo[1,2-b]pyridazine-7-carboxamide]: the EC50 came to 2100 nM. With `O=C(NC1CCOCC1)c1cc(Cc2ccc(-n3cccn3)cc2)c2cccnn12` [Example 22, N-(Tetrahydropyran-4-yl)-5-(4-pyrazol-1-ylbenzyl)-pyrrolo[1,2-b]pyridazine-7-carboxamide] the figure was 1760 nM.

As to `O=C(N[C@H]1CCCC[C@@H]1O)c1cc(Cc2ccc(-c3cscn3)cc2)c2cccnn12` [Example 23, N-(cis-1S,2S-2-Hydroxycyclohexyl)-5-(4-thiazol-4-ylbenzyl)-pyrrolo[1,2-b]pyridazine-7-carboxamide], the EC50 was determined as 119 nM. On to `O=C(N[C@H]1CCCC[C@@H]1O)c1cc(Cc2ccc(F)cc2Br)c2cccnn12` [Example 24, N-(cis-1S,2S-2-Hydroxycyclohexyl)-5-(2-bromo-4-fluorobenzyl)-pyrrolo[1,2-b]pyridazine-7-carboxamide], for which the EC50 turned out to be 1180 nM. As to `O=C(N[C@H]1CCCC[C@@H]1O)c1cc(Cc2ccc(Br)c(F)c2F)c2cccnn12` [Example 25, N-(cis-1S,2S-2-Hydroxycyclohexyl)-5-(2,3-difluoro-4-bromobenzyl)-pyrrolo[1,2-b]pyridazine-7-carboxamide], the EC50 came to 2290 nM. For `O=C(N[C@H]1CCCC[C@@H]1O)c1cc(Cc2ccc(F)c(Br)c2)c2cccnn12` [Example 26, N-(cis-1S,2S-2-Hydroxycyclohexyl)-5-(3-bromo-4-fluorobenzyl)-pyrrolo[1,2-b]pyridazine-7-carboxamide], the EC50 is 643 nM. As for `O=C(N[C@H]1CCCC[C@@H]1O)c1cc(Cc2cccc(Br)c2)c2cccnn12` [Example 27, N-(cis-1S,2S-2-Hydroxycyclohexyl)-5-(3-bromobenzyl)-pyrrolo[1,2-b]pyridazine-7-carboxamide], the EC50 came out at 1700 nM. As to `O=C(N[C@H]1CCCC[C@@H]1O)c1cc(Cc2cccnc2Cl)c2cccnn12` [Example 28, N-(cis-1S,2S-2-Hydroxycyclohexyl)-5-(2-chloropyridin-3-ylmethyl)-pyrrolo[1,2-b]pyridazine-7-carboxamide], the EC50 was 10000 nM. With `O=C(N[C@H]1CCCC[C@@H]1O)c1cc(Cc2ccnc(Br)c2)c2cccnn12` [Example 29, N-(cis-1S,2S-2-Hydroxycyclohexyl)-5-(2-bromopyridin-4-ylmethyl)-pyrrolo[1,2-b]pyridazine-7-carboxamide] the figure was 1010 nM; with `O=C(NC1CCOCC1O)c1cc(Cc2cccc(F)c2)c2cccnn12` (stereo not drawn) [Example 30, N-(3-Hydroxytetrahydropyran-4-yl)-5-(3-fluorobenzyl)-pyrrolo[1,2-b]pyridazine-7-carboxamide], 1650 nM; with `O=C(NC1CCOCC1O)c1cc(Cc2ccc(Br)cc2)c2cccnn12` (stereo not drawn) [Example 31, N-(3-Hydroxytetrahydropyran-4-yl)-5-(4-bromobenzyl)-pyrrolo[1,2-b]pyridazine-7-carboxamide], 1030 nM. Regarding `Cn1cc(-c2ccc(Cc3cc(C(=O)N[C@H]4CCCC[C@@H]4O)n4ncccc34)cn2)cn1` [Example 35, N-(cis-1S,2S-2-Hydroxycyclohexyl)-5-[6-(1-methyl-1H-pyrazol-4-yl)-pyridin-3-ylmethyl]-pyrrolo[1,2-b]pyridazine-7-carboxamide], the EC50 was 599 nM.

As to `Cn1cc(-c2ccc(Cc3cc(C(=O)N[C@H]4CCCC[C@@H]4O)n4ncccc34)c(F)c2F)cn1` [Example 36, N-(cis-1S,2S-2-Hydroxycyclohexyl)-5-[2,3-difluoro-4-(1-methyl-1H-pyrazol-4-yl)-benzyl]-pyrrolo[1,2-b]pyridazine-7-carboxamide], the concentration for a half-maximal effect (EC50) came to 94 nM. For the compound `Cn1cc(-c2cc(Cc3cc(C(=O)N[C@H]4CCCC[C@@H]4O)n4ncccc34)ccc2F)cn1` [Example 37, N-(cis-1S,2S-2-Hydroxycyclohexyl)-5-[4-fluoro-3-(1-methyl-1H-pyrazol-4-yl)-benzyl]-pyrrolo[1,2-b]pyridazine-7-carboxamide], the EC50 is 1000 nM.

By EC50 is commonly meant the concentration giving half of the maximal effect.

(Values after patent US11234979B2, “Heteroaryl compounds as muscarinic M1 receptor positive allosteric modulators” (SUVEN LIFE SCIENCES LIMITED, priority 2017, dated 2022).)
